The results in this text go back to article PMC12704579, “New Anticancer 4‐Aryldihydropyrimidinone‐5‐Carboxylates Targeting Hsp90” (Chemical Biology & Drug Design, 2025).

The subject of series [1] is HCC1954, MCF-7 and HEK-293 cells. Description: Growth inhibition assay (CellTitre-Blue endpoint), 72 h incubation. The class given is cell-based, human. To be noted: paclitaxel positive control, Figure 3. As for the experimental part:
Cells were cultured in 96‐well plates in 90 μL at a seeding density of 1 × 10^6 cells per well. Compound samples were prepared at different concentrations (1 mM, 100 μM, 10 μM, 1 μM, 100 nM, 10 nM) and 10 μL of each concentration was seeded in each well. Two different negative controls were used: DMSO 0.01% and 0.001%. Paclitaxel (30% w/v) was used as a positive control. Cells were treated for 24 h after which 20 μL of CellTitre‐Blue reagent (Promega, Southampton, UK) was added and incubated for 2 h at 37°C in 5% CO2. Fluorescence was measured at 560/590 nm on a Fluorostar Optima plate reader (BMG Labtech, Bucks, UK). Assay end points were normalised to 0% (DMSO only) and fitted to a semilog plot using at least n = 3 technical replicates (n = 6 for DMSO control and paclitaxel control) and N = 3 independent replicates. The curve fit was performed using the GraphPad Prism software and the standard Hill equation. […]
FIGURE 3 Growth inhibition assay (CellTitre‐Blue endpoint) in human breast cancer cell lines HCC1954 and MCF‐7, and non‐tumorigenic HEK‐293 cells for hit compounds 5d and 5e (72 h incubation). Growth inhibition is represented by the percentage of relative fluorescence units standardised to DMSO control. […]

Series [2] relates to MDA-MB-231 cells. Nature of the series: CellTiter-Blue cell viability assay, MDA-MB-231 (24 h). Type of series: cell-based, human. To be noted: for GI50 / viability at 10 µM: Homo sapiens, MDA-MB-231, 24 h; for GI50: 24 h incubation time. How it is done: (§1) Human Embryonic Kidney cells (HEK‐293) and human breast cancer cells (MCF‐7, MDA‐MB‐231 and HCC1954) were cultured in complete growth media: […] 1X (Gibco); 10% v/v Fetal Bovine Serum (FBS, Sigma Dorset UK) and L‐glutamine (2 mM, Invitrogen). SW‐480‐WT cells were maintained in selective media made up of Dulbecco's Modified Eagle Medium (Gibco), enriched with […] of Geneticin Selective Antibiotic (G418 Sulfate; Gibco, Thermo Fisher). Cells were incubated at a 5% CO2 atmosphere at 37°C.
Cells were cultured in 96‐well plates in 90 μL at a seeding density of 1 × 10^6 cells per well. Compound samples were prepared at different concentrations (1 mM, 100 μM, 10 μM, 1 μM, 100 nM, 10 nM) and 10 μL of each concentration was seeded in each well. Two different negative controls were used: DMSO 0.01% and 0.001%. Paclitaxel (30% w/v) was used as a positive control. Cells were treated for 24 h after which 20 μL of CellTitre‐Blue reagent (Promega, Southampton, UK) was added and incubated for 2 h at 37°C in 5% CO2. Fluorescence was measured at 560/590 nm on a Fluorostar Optima plate reader (BMG Labtech, Bucks, UK). Assay end points were normalised to 0% (DMSO only) and fitted to a semilog plot using at least n = 3 technical replicates (n = 6 for DMSO control and paclitaxel control) and N = 3 independent replicates. The curve fit was performed using the GraphPad Prism software and the standard Hill equation.
In view of previous reports on Hsp90 inhibitors and their effects on cancer cell viability (Eachkoti et al. [2014]) and clonogenicity (Kinzel et al. [2016]), new compounds were tested for inhibition of cell viability within both non‐tumourigenic (HEK‐293) and breast cancer cell lines (MDA‐MB‐231) at a fixed concentration of 10 μM. The well‐established CellTiter‐Blue endpoint assay was used to assess cell viability. New compounds were also assessed in a colony forming assay (MCF‐7 breast cancer cell line), used as an efficacy screening to provide an indication of the inhibition of clonogenicity for these small molecules (Table 1).

In series [3] the test system is HCC1954 cells. Description: Colony forming assay, HCC1954. Type of series: cell-based, human. How it is done:
as §1
(§2) Cells were seeded in a 12‐well plate at 400 cells per well. One hour after the seeding of the cells, compounds (1 mM, 100 μM, 10 μM, 1 μM, 100 nM, 10 nM) or vehicle were added into the wells in triplicate (DMSO vehicle 0.1% and 1%). After 7 days, colonies were stained with 350 μL of crystal violet solution, incubated for 30 min at room temperature, then wells were washed in water and dried. At least the best 3 independent experiments out of 5 independent repeats were used to perform the statistical analysis of the results. Colonies were counted by GelCount Colony Counter (Oxford Optronix Ltd.) using the GelCount 1.1.8.0 software. Assay end points were normalised to 0% (DMSO only) and fitted to a semi‐log plot using at least n = 3 technical replicates (n = 6 for DMSO control and N = 3 independent replicates). The curve fit was performed using GraphPad Prism. […]

Series [4] has as its system BT474 cells. Description: Colony forming assay, BT474. The class given is cell-based, human. To be noted: 7 days treatment at 10 μM. How it is done:
(§3) Cells were seeded in a 12‐well plate at 400 cells per well. One hour after the seeding of the cells, compounds (1 mM, 100 μM, 10 μM, 1 μM, 100 nM, 10 nM) or vehicle were added into the wells in triplicate (DMSO vehicle 0.1% and 1%). After 7 days, colonies were stained with 350 μL of crystal violet solution, incubated for 30 min at room temperature, then wells were washed in water and dried. At least the best 3 independent experiments out of 5 independent repeats were used to perform the statistical analysis of the results. Colonies were counted by GelCount Colony Counter (Oxford Optronix Ltd.) using the GelCount 1.1.8.0 software. Assay end points were normalised to 0% (DMSO only) and fitted to a semi‐log plot using at least n = 3 technical replicates (n = 6 for DMSO control and N = 3 independent replicates). The curve fit was performed using GraphPad Prism.
(§4) Compound 5d was screened for the ability to inhibit colony formation in additional human cancer cell lines (Table 3). […] Sub‐micromolar IC50 values in HCC1954 and MDA‐MB‐231 cells were derived by testing over a six‐fold log concentration range. To further extend the profile of activity, the effect of 5d on the colorectal adenocarcinoma cell line SW‐480 was studied, with similarly potent effects on colony viability (Table 3).

Series [5] deals with SKBR3 cells. Nature of the series: Colony forming assay, SKBR3. Type of series: cell-based, human. The following applies: 7 days treatment at 10 μM. As for the experimental part: as §3, §4
The nature of series [6]: Human microsomal stability (Cyprotex). Type of series: in vitro ADME. The following applies: human microsomes; for microsomal CLint: read-out: Metabolic stability (human microsomes) CLint; for half-life: read-out: Metabolic stability (human microsomes) Half-life. As for the experimental part: All the selected analogues were calculated to be compliant with the Lipinski rule‐of‐five guidelines for oral bioavailability. Furthermore, in vitro ADME (absorption, distribution, metabolism, excretion) properties were assessed as an outsourced service (Cyprotex Discovery Ltd., UK; part of the EvoTec Group); profiling membrane permeability (Caco‐2 cell model), hERG channel cardiotoxicity, human microsomal stability and turbidometric solubility (Table 4).

In series [7] the test system is MDA-MB-231 cells. Description: Colony forming assay, MDA-MB-231. The class given is cell-based, human. As for the experimental part: as §1, §2
Series [8] concerns SW-480 cells. Description: Colony forming assay, SW-480. Type of series: cell-based, human. As for the experimental part:
as §1, §2

[9] abbreviates: CellTiter-Blue, 24 h incubation, 10 μM test compound, standardised to DMSO control.

In the case of `COc1ccc(C2NC(=O)NC(C)=C2C(=O)OCc2ccc3c(c2)OCO3)c(F)c1` (stereo not shown) [Compound 5d, Benzo[d][1,3]dioxol‐5‐ylmethyl‐4‐(2‐Fluoro‐4‐Methoxyphenyl)‐6‐Methyl‐2‐Oxo‐1,2,3,4‐Tetrahydropyrimidine‐5‐Carboxylate], the “Growth inhibitory effect / effect on cell viability, longer incubation” value in series [1] is on record as “devoid of significant effects on cell viability”. For the same molecule, in series [2], the GI50 was 79.3 µM. Further, the viability at 10 µM in series [2] (setting [9]) came out at 86.3 ± 3.8%. For the same molecule, in series [3] (7 days treatment at 10 μM), the “Percentage of surviving colonies, HCC1954” value is given as 8.8% ± 4.0. For the same molecule, the IC50 in series [3] (Homo sapiens, HCC1954, read-out: Colony formation IC50, HCC1954) was 0.56 µM; in series [7] (Homo sapiens, MDA-MB-231, read-out: Colony formation IC50, MDA-MB-231) it was 0.62 µM; in series [8] (Homo sapiens, SW480, read-out: Colony formation IC50, SW-480), 1.21 µM. Further, the “Percentage of surviving colonies, BT474” value in series [4] was 80.4% ± 8.0. Further, the “Percentage of surviving colonies, SKBR3” value in series [5] is 94.4% ± 2.1. Also, in series [6], the microsomal CLint turned out to be 34.6 µL/min/mg. The half-life in series [6] turned out to be 40.1 min. Moreover, the “Percentage of surviving colonies, MDA-MB-231” value in series [7] (7 days treatment at 10 μM) is on record as 11.9% ± 2.9. Besides, the “Percentage of surviving colonies, SW-480” value in series [8] (7 days treatment at 10 μM) is reported as 57.9% ± 2.0.

`COc1ccc(COC(=O)C2=C(C)NC(=O)NC2c2ccc(Cl)cc2)cc1C` (stereo not shown) [Compound 5e, 4‐Methoxy‐3‐Methylbenzyl‐4‐(4‐Chlorophenyl)‐6‐Methyl‐2‐Oxo‐1,2,3,4‐Tetrahydropyrimidine‐5‐Carboxylate]: in series [1], the “Growth inhibitory effect / effect on cell viability, longer incubation” value is listed as “comparable to the cytotoxic drug control paclitaxel”. In addition, the “% Viability (MDA-MB-231, 10 μM)” value in series [2] (CellTiter-Blue, 24 h incubation, 10 μM test compound, standardised to DMSO control, 10 µM) worked out at 79.43 ± 8.8%. In addition, the 50% growth inhibitory concentration (GI50) in series [2] was found to be 12.6 µM. For the same molecule, the viability at 10 µM in series [2] (setting [9]) is < 80%. Also, in series [6], the microsomal CLint came out at 108 µL/min/mg and the half-life came out at 12.8 min.

Broadly, the GI50 is the concentration giving 50% growth inhibition. For orientation: viability means a per cent measure of how many cells are alive, often set against a control. Usually IC50 stands for the midpoint of a concentration-inhibition curve. In general, half-life refers to how long it takes for the measured level to halve.
